These results are taken from US9714232B2, “Substituted piperazine compounds and methods of use thereof” (Sunshine Lake Pharma Co., Ltd., priority 2013, dated 2017).

For assay [1], the target named is serotonin transporter in rat synaptosome (Rattus norvegicus (Rat), UniProt P31652). In words: Inhibitory effect on [3H]5-HT uptake in rat synaptosome. In kind it is biochemical. The conditions noted are these: rat brain synaptosomes, 0.1 μCi [3H]5-HT, 37° C., 15 minutes. How it is done: The synaptosomes (150 μg) prepared from a rat brain were incubated at 37° C. for 15 minutes with 0.1 μCi [^3H]5-HT in the absence or presence of the test compound or the reference compound in a buffer solution containing 106.2 mM NaCl, 4.5 mM KCl, 2.25 mM MgSO4, 1.08 mM NaH2PO4, 22.5 mM NaHCO3, 9.9 mM glucose, 9 μM EGTA and 45 μM ascorbic acid (pH 7.4).
The basal control activity was determined by incubating the same mixture at 4° C. for 15 minutes in the presence of 10 μM imipramine to block the uptake of 5-HT, which was taken as the standard reference compound and tested in each experiment at several concentrations to obtain an inhibition curve.
Following the incubation, the samples were filtered rapidly under vacuum through glass fiber filters (GF/B, Packard) and rinsed twice with an ice-cold incubation buffer using a 96-sample cell harvester (Unifilter, Packard) to eliminate free [^3H]5-HT. The filters were dried and the retained radioactivity was measured in a scintillation counter (Topcount, Packard) using a scintillation cocktail (Microscint 0, Packard). The experimental results were expressed as a percent inhibition of the control uptake of [^3H]5-HT.
Inhibition of serotonin transporter in rat synaptosome was measured by the concentrations of [^3H]5-HT.

The target in the next assay is human 5-HT1A receptor (Homo sapiens (Human), UniProt P08908). Briefly: Affinity for human 5-HT1A receptor ([3H]8-OH-DPAT binding, HEK-293 cell homogenates). The conditions noted are these: 0.3 nM [3H]8-OH-DPAT, human HEK-293 cell homogenates, 22° C., 60 minutes; Ki from IC50 by ChengPrusoff equation. As for the experimental part: Human HEK-293 cell homogenates (36 μg protein) were incubated at 22° C. for 60 minutes with 0.3 nM [^3H]8-0H-DPAT (Perkin-Elmer) in the absence or presence of the test compound in a buffer solution containing 50 mM Tris-HCl (pH 7.4), 10 mM MgSO4, 0.5 mM EDTA and 2 μg/ml aprotinine.
The non-specific binding value was determined by incubating the same mixture in the presence of 10 μM 8-OH-DPAT, which was used as the standard reference compound and tested in each experiment at several concentrations to obtain a competition curve.
Following the incubation, the samples were filtered rapidly under vacuum through glass fiber filter (GF/B, Packard) presoaked with 0.3% PEI and rinsed several times with ice-cold 50 mM Tris-HCl using a 96-sample cell harvester (Unifilter, Packard). The filters were dried and the retained radioactivity was measured in a scintillation counter (Topcount, Packard) using a scintillation cocktail (Microscint 0, Packard). The experimental results were expressed as a percent inhibition of the control radioligand specific binding.
Binding assay of [^3H] 8-OH-DPAT (0.3 nM) with 5-HT1A receptor in human HEK-293 cell was tested by scintillation proximity assay of membrane.

The structures appear in SMILES notation.

Sequence of human 5-HT1A receptor (P08908 whole entry): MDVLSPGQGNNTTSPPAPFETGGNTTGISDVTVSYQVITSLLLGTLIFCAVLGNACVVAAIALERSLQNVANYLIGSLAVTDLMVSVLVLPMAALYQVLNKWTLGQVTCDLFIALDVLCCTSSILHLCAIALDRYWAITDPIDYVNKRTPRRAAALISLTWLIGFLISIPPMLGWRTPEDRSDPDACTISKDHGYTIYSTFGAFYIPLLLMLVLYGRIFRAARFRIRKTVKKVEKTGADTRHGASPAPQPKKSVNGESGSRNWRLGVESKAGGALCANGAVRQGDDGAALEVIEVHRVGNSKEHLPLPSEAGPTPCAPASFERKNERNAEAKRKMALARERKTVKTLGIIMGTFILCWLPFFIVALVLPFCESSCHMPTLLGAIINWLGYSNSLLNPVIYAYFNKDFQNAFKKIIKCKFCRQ
Sequence of serotonin transporter in rat synaptosome (P31652 whole entry): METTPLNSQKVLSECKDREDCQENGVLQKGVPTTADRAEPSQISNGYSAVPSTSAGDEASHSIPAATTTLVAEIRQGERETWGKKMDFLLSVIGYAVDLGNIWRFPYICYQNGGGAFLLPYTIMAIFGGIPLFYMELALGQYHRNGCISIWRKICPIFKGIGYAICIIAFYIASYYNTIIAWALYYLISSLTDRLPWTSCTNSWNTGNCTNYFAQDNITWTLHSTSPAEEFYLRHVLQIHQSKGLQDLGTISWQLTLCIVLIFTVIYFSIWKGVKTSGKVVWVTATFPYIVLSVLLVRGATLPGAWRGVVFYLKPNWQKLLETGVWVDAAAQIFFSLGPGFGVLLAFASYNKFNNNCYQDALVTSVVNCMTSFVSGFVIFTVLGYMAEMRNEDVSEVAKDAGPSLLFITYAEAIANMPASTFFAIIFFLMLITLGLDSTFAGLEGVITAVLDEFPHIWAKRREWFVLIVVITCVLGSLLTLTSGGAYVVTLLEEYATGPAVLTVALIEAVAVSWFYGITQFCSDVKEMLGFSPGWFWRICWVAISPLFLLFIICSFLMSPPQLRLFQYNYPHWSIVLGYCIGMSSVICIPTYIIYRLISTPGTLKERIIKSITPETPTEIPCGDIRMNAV

In general, IC50 refers to the point on the concentration scale where inhibition reaches its midpoint. Read a high IC50 as weaker potency in that assay. What is called Ki is the dissociation constant of the complex between target and ligand, obtained from inhibition or displacement. Read a high Ki as weaker binding. `N#Cc1ccc2[nH]cc(CCCN3CCN(c4ccc(-n5cc(F)cc(F)c5=O)cc4)CC3)c2c1` [Example 26, 3-(3-(4-(4-(3,5-difluoro-2-oxopyridin-1(2H)-yl)phenyl)piperazin-1-yl)propyl)-1H-indole-5-carbonitrile] displayed an IC50 in assay [1] of 1.3 nM. In addition, the Ki on human 5-HT1A receptor came to 0.31 nM.

Regarding `N#Cc1ccc2[nH]cc(CCN3CCN(c4ccc(-n5cc(F)cc(F)c5=O)cc4)CC3)c2c1` [Example 27, 3-(2-(4-(4-(3,5-difluoro-2-oxopyridin-1(2H)-yl)phenyl)piperazin-1-yl)ethyl)-1H-indole-5-carbonitrile], the IC50 in assay [1] was 5.5 nM. The inhibitory constant (Ki) at human 5-HT1A receptor was 68 nM.

`N#Cc1ccc2[nH]cc(CCCCCN3CCN(c4ccc(-n5cc(F)cc(F)c5=O)cc4)CC3)c2c1` [Example 28, 3-(5-(4-(4-(3,5-difluoro-2-oxopyridin-1(2H)-yl)phenyl)piperazin-1-yl)pentyl)-1H-indole-5-carbonitrile] returned an IC50 in assay [1] of 2.2 nM. For the same compound, at human 5-HT1A receptor, the Ki amounted to 1.5 nM.

`N#Cc1ccc2[nH]cc(CCCN3CCN(c4ccc(-n5ccc6ccccc6c5=O)cc4)CC3)c2c1` [Example 30, 3-(3-(4-(4-(1-oxoisoquinolin-2(1H)-yl)phenyl)piperazin-1-yl)propyl)-1H-indole-5-carbonitrile] yielded an IC50 in assay [1] of 4.3 nM. At human 5-HT1A receptor, this compound showed an inhibitory constant (Ki) of 3.6 nM.

The compound `N#Cc1ccc2[nH]cc(CCCCN3CCN(c4ccc(-n5ccc6ncccc6c5=O)cc4)CC3)c2c1` [Example 31, 3-(4-(4-(4-(5-oxo-1,6-naphthyridin-6(5H)-yl)phenyl)piperazin-1-yl)butyl)-1H-indole-5-carbonitrile] yielded an IC50 in assay [1] of 0.23 nM. Besides, at human 5-HT1A receptor, the Ki came out at 0.5 nM.

The compound `N#Cc1ccc2[nH]cc(CCCN3CCN(c4ccc(-n5ccc6ncccc6c5=O)cc4)CC3)c2c1` [Example 32, 3-(3-(4-(4-(5-oxo-1,6-naphthyridin-6(5H)-yl)phenyl)piperazin-1-yl)propyl)-1H-indole-5-carbonitrile] returned a half-maximal inhibitory concentration (IC50) in assay [1] of 0.93 nM. Also, the affinity on human 5-HT1A receptor, expressed as Ki, was 1.7 nM.

In turn, `N#Cc1ccc2[nH]cc(CCCCN3CCN(c4ccc(-n5ccc6occc6c5=O)cc4)CC3)c2c1` [Example 33, 3-(4-(4-(4-(4-oxofuro[3,2-c]pyridin-5 (4H)-yl)phenyl)piperazin-1-yl)butyl)-1H-indole-5-carbonitrile] returned an IC50 in assay [1] of 0.53 nM. Moreover, on human 5-HT1A receptor, affinity was put at a Ki of 0.14 nM.

The compound `N#Cc1ccc2[nH]cc(CCCN3CCN(c4ccc(-n5ccc6occc6c5=O)cc4)CC3)c2c1` [Example 34, 3-(3-(4-(4-(4-oxofuro[3,2-c]pyridin-5 (4H)-yl)phenyl)piperazin-1-yl)propyl)-1H-indole-5-carbonitrile] displayed an IC50 in assay [1] of 4.2 nM. This compound also showed an inhibitory constant (Ki) on human 5-HT1A receptor of 0.1 nM.

On to `N#Cc1ccc2[nH]cc(CCCCN3CCN(c4ccc(-n5ccncc5=O)cc4)CC3)c2c1` [Example 35, 3-(4-(4-(4-(2-oxopyrazin-1(2H)-yl)phenyl)piperazin-1-yl)butyl)-1H-indole-5-carbonitrile], for which inhibition in assay [1] was half-maximal at 0.8 nM (IC50). Further, affinity on human 5-HT1A receptor was put at a Ki of 0.8 nM.

In assay [1], `N#Cc1ccc2[nH]cc(CCCN3CCN(c4ccc(-n5ccncc5=O)cc4)CC3)c2c1` [Example 36, 3-(3-(4-(4-(2-oxopyrazin-1(2H)-yl)phenyl)piperazin-1-yl)propyl)-1H-indole-5-carbonitrile] gave an IC50 of 1.8 nM. Also, at human 5-HT1A receptor, the affinity corresponds to a Ki of 3 nM.

With `N#Cc1ccc2[nH]cc(CCCCN3CCN(c4ccc(N5CCCNC5=O)cc4)CC3)c2c1` [Example 37, 3-(4-(4-(4-(2-oxotetrahydropyrimidin-1(2H)-yl)phenyl)piperazin-1-yl)butyl)-1H-indole-5-carbonitrile], inhibition in assay [1] was half-maximal at 1.3 nM (IC50). The Ki on human 5-HT1A receptor worked out at 1.3 nM.

`N#Cc1ccc2[nH]cc(CCCN3CCN(c4ccc(N5CCCNC5=O)cc4)CC3)c2c1` [Example 38, 3-(3-(4-(4-(2-oxotetrahydropyrimidin-1(2H)-yl)phenyl)piperazin-1-yl)propyl)-1H-indole-5-carbonitrile] registered an IC50 in assay [1] of 1.4 nM. This compound registered a Ki at human 5-HT1A receptor of 1.9 nM.
